No end group written: not given here.
What was measured:
Type in all cases: cell-based, human
PBMC = assay: Proliferation, direct presentation of peptide via PBMC (monocytes); settings: for PBL Index of stimulation (SI) via PBMC: naive donors, representative of 5 experiments; for Optimal dose via PBMC: optimal dose required for PBL activation, six donors; for Optimal dose via PBMC / Peak of Proliferation (Hours) via PBMC: average of 5 experiments; for Peak of Proliferation (Hours) via PBMC: visual inspection daily during 5 days
Procedure: (§1) Proliferation analysis was conducted in three different methods. In all three methods, plates were cultured for 3-5 days under visual control and then 0.5 […]Cu/well of 3[H] (Amersham) was added for additional culture of to 18 h at 37° C. In the last step, plates were harvested and the radioactive counts were measured in a □ counter. • 1. DC indirect presentation: In the first method, 100 µl of 2×10^6 thawed PBL were placed in U-shape Bottom 96 well plate (Nunc) with RPMI medium supplemented with 5% H AB serum, L-Glutamine, Sodium Pyruvate, MEM-EAGLE non-essential amino-acids, HEPES and Gentamycin. At the next stage 100 µl of 25×10^4 peptide-pulsed DC were added to each three wells of PBL and underwent proliferation analysis as described above. • 2. PBL direct presentation: In the 2nd method, 100 µl of 2×10^6 PBL were placed in Flat Bottom 96 well plates (Corning) and stimulated with different concentrations (0.05 ug/ml-2 ug/ml) of peptides. In the next step the cells underwent proliferation analysis as described above. • 3. PBMC direct presentation: In third method PNMC were used under similar conditions as described for the second method.
b. Direct presentation of the peptides via PBMC i.e. monocytes
(§2) Five experiments were performed according to the protocol described in material and methods with buffy-coat enriched PBLs obtained from six different naive donors (obtained from the Israeli blood bank).

[1] = test system: T-Cell specific subpopulation (Clones); assay: ELISA of cytokine secretion by the T-cell specific subpopulation (clones) stimulated with peptides; settings: two experiments, four donors
Description: (§3) Thawed PBLs underwent 1st stimulation with ImMucin pulsed Autologues DC at a ratio of 20:1 and cultured for 7 days in dedicated T cell Medium. T cell medium contained RPMI medium supplemented with 10% FCS, L-Glutamine, Sodium Pyruvate, MEM-EAGLE non-essential amino-acids, HEPES and Gentamycin Sulphate (Bet-Haemek Industries, IL) as well as with 50 IU/ml of recombinant IL-7 (Cytolab IL). For the second stimulation, PBL were transferred to adherent autologues ImMucin-pulsed PBMC and cultured for additional 5 days in T cell Medium. At the end of the 5 days, medium was partial replaced with fresh medium containing 1 ug/ml of ImMucin and 50 IU/ml IL-2 for a third stimulation of 48 h at 37° C. Following the last stimulation ImMucin T cell line was checked for immune activation properties.
(§4) Cytokine release was studied during the culture of stimulated T-cells. The evaluated samples were collected from the T cell culture medium on day 2, 3, and 5 and stored until use at −20° C.
(§5) […] of the selected capture antibody (e.g. anti-Hu IFN-Gamma, or anti-Hu TNF-alfa or anti IL-2) were added to each well at the final concentration of 5 μg/ml in PBS. Plates were incubated for 2 h at R.T. or over night at 4° C. Next, […] of blocking solution were added for an incubation of 2 h at R.T. […] of evaluated samples were added in duplicate into 2 wells for 2 hours at RT. After 2 h of incubation at R.T plates were washed λ4 times in washing solution. In the next step, a Biotin-conjugated detection antibody (relevant to coated antibody) was added at a final concentration of 10 μg/ml in total volume of 100 μl for 1 h at R.T. Finally, 100 μl/well working dilution (1:10000 in Blocker solution) of Streptavidin-HRP were added to each well and incubated for 1 h at R.T.
(§6) Plates were washed λ6 times with PBS-Tween (0.4%) and 100 μl/well of TMB/E Solution (CHEMICON, Catalog #ES001) was added. The plates were then exposed until blue color appeared in the wells of the positive control and no color was detected in the blank wells. To stop the color reaction, 50 μl/well of 10% of Sulfuric acid was added. The plates were counted in ELISA-Reader using a 450 nm filter.
(§7) For that purpose, an enriched ImMucin-specific T cell subpopulation was produced via repeated stimulation with ImMucin. The specificity of the subpopulation for ImMucin, as well as to the other VXL epitopes, was examined using proliferation assays, cytokine release assays, FACS analysis in which the percentage and type of cells enriched during the enrichment process was analyzed, and using a CTL assay against selected target cells.
(§8) For producing the specific T cell subpopulation PBL were stimulated three times for 7, 5 and 2 days with ImMucin presented via DC and PBMC. Following the 3rd stimulation the cells were evaluated against the different VXL epitopes.

[2] = test system: lymphocytes from naive donors; assay: Proliferation assay, kinetics of lymphocyte activation as summarised in text (presentation mode not stated); settings: summary of five experiments
Procedure: as §1
A different parameter for assessing the properties of ImMucin and the other VXL-peptide epitopes is by analyzing the time until a maximal peak of activity occurs and the optimal dose for maximal stimulation. Maximal peak of PBL activation is determined when <50% of the PBLs appear in clumps. In these experiments, the kinetic (time) in the proliferation of lymphocytes from the six naive donors stimulated at a fix dose of 0.05-1 ug/ml by ImMucin and other VXL-Peptides, was observed.

[3] = test system: ImMucin specific T-cell subpopulation; assay: Proliferation of the ImMucin-specific T-cell subpopulation after three stimulations; settings: one out of two experiments, four donors
Description: as §3, §1, §7, §8

PBL [4] = assay: ELISA of cytokine secretion by PBL stimulated once with peptide-pulsed DC; settings: peptide DC ratio 16:1, one out of five experiments, six donors
Procedure: (§9) Human PBMC were separated from buffy coat samples of naive donors using Ficoll UNI-SEPmaxi tube. Separated cells were suspended in RPMI medium supplemented with 10% FCS, L-Glutamine, Sodium Pyruvate, MEM-EAGLE non-essential amino-acids, HEPES and Gentamycin Sulphate (Bet-Haemek Industries, IL) and cultivated for 4 h at 37° C. in a culture dish (Corning 150 mm×25 mm). Adherent cells were collected and cultured for 7 days in serum free DCCM-1 medium supplemented with L-Glutamine, huIL-4 (1000 IU/ml) (Cytolab IL) and GM-CSF-80 ug/ml (Cytolab IL). On day seven floating cells were collected and loaded with 50 ug/ml of examined peptide for 18 h at 37° C.
as §4, §5, §6

PBL [5] = assay: Proliferation of PBL, DC indirect presentation (peptide-pulsed autologous DC); settings: for PBL Index of stimulation (SI) via DC: naive donors, CPM sample / CPM control, representative of 5 experiments; for IS (SI of the peptides as indicated in Table 7): one out of five experiments; for IS (SI of the peptides as indicated in Table 7) / Optimal dose via DC: six donors; for Optimal dose via DC: optimal dose required for PBL activation; for Optimal dose via DC / Peak of Proliferation (Hours) via DC: average of 5 experiments; for Peak of Proliferation (Hours) via DC: visual inspection by light microscopy daily during 5 days
Procedure: as §9, §1
In the first set of experiments, the 21mer ImMucin, its different 9mer epitopes and other control epitopes (Table 3) were evaluated in proliferation assays with the aim of finding their optimal mode of presentation, stimulated dose as well as their peak of activity (time wise).
To evaluate the most efficient method for priming of PBLs with the different peptides, the following methods were compared:
a. In-direct presentation of the peptide via Autologues-pulsed DC
as §2

PBL [6] = assay: Proliferation of PBL, direct presentation of peptide without APC; settings: for PBL Index of stimulation (SI) Direct no APC: naive donors, representative of 5 experiments; for Optimal dose Direct no APC: optimal dose required for PBL activation, six donors; for Optimal dose Direct no APC / Peak of Proliferation (Hours) Direct no APC: average of 5 experiments; for Peak of Proliferation (Hours) Direct no APC: visual inspection daily during 5 days
Procedure: In all three methods, plates were cultured for 3-5 days under visual control and then 0.5 □Cu/well of 3[H] (Amersham) was added for additional culture of to 18 h at 37° C. […] DC indirect presentation: In the first method, 100 µl of 2×10^6 thawed PBL were placed in U-shape Bottom 96 well plate (Nunc) with RPMI medium supplemented with 5% H AB serum, L-Glutamine, Sodium Pyruvate, MEM-EAGLE non-essential amino-acids, HEPES and Gentamycin. At the next stage 100 µl of 25×10^4 peptide-pulsed DC were added to each three wells of PBL and underwent proliferation analysis as described above. • 2. PBL direct presentation: In the 2nd method, 100 µl of 2×10^6 PBL were placed in Flat Bottom 96 well plates (Corning) and stimulated with different concentrations (0.05 ug/ml-2 ug/ml) of peptides. In the next step the cells underwent proliferation analysis as described above. • 3. PBMC direct presentation: In third method PNMC were used under similar conditions as described for the second method.
Direct presentation of peptides to PBL without any APC

Sequence	PBL Index of stimulation (SI) via PBMC (PBMC)	Optimal dose via PBMC (PBMC) [µg/mL]	Peak of Proliferation (Hours) via PBMC (PBMC) [h]	IL-2 % of clones [1] [%]	INF-gamma % of clones [1] [%]	TNF-Alfa % of clones [1] [%]	TNF-Alfa Range [1] [ng/mL]	peak of proliferation / maximum stimulation [2] [h]	IS (Average) [3]	IS (Range) [3]	IFN-gamma (PBL [4]) [ng/mL]	IL-2 (PBL [4]) [ng/mL]	IS (SI of the peptides as indicated in Table 7) (PBL [5])	Optimal dose via DC (PBL [5])	Peak of Proliferation (Hours) via DC (PBL [5]) [h]	PBL Index of stimulation (SI) Direct no APC (PBL [6])	Optimal dose Direct no APC (PBL [6])	Peak of Proliferation (Hours) Direct no APC (PBL [6])	also measured
LLLLTVLTV [VXL-2, LLLLTVLTV]	1.2	0.05 to 1	120	50	25	83	1.9 to 9.4	120	3.275	1.45-5.1	0	0	2.2	12.5-25 × × 10e6/well	120	0	No Influence	No proliferation	IL-2 Range [1]: 2.53 to 10.2 ng/mL; INF-gamma Range [1]: 1.4 to 8.9 ng/mL; IL-2 Range ng/ml ([1]; listed as VXL2): high; INF-gamma Range ng/ml ([1]; listed as VXL2): high; TNF-Alfa (PBL [4]): 0 ng/mL; PBL Index of stimulation (SI) via DC (PBL [5]): 2.2
LLLTVLTVV [VXL-1, LLLTVLTVV]	1.59	0.05 to 1	120	83	33	83	2.7 to 9.8	120	3.05	1.66-4.4	0	0	3.2	12.5-25 × × 10e6/well	120	0	No Influence	No proliferation	PBL Index of stimulation (SI) via DC (PBL [5]; listed as VLX-1): 3.2

From patent US11179452B2, “Antigen specific multi epitope vaccines” (priority 2006, dated 2021)
